A word on the IC50: it is the concentration that inhibits the measured activity by half. A low value points to greater potency.

These results are taken from BindingDB's records for doi:10.3109/14756366.2013.827675 (Orchid Chemicals & Pharmaceuticals Limited, 2014).

This test addresses Histone deacetylase 1/11/4/6/8. Nature of the test: HDAC Activity screening. On the procedure:
Histone Deacetylase (HDAC) Inhibition Assay using Boc-Lys(Ac)-AMC Substrate: Inhibition of HDAC has been implicated to modulate transcription and to induce apoptosis or differentiation in cancer cells. The fluorometric assay provides a fast and fluorescence based method that eliminates radioactivity, extractions or chromatography, as used in traditional assays. The assay is based on two steps. First, the HDAC fluorometric substrate, which comprises an acetylated lysine side chain, is incubated with a sample containing HDAC activity (Mouse Liver Extract). Deacetylation of the substrate sensitizes the substrate; in the second step, treatment with the Trypsin, stop solution produces a fluorophore that can be easily analyzed using fluorescence plate reader. Assay was done in 96-well black microplate and total volume of the assay was […]. Mouse liver enzyme (10 mg/mL) was diluted 1:6 with HDAC buffer. Enzyme cocktail was made of 10 mL of diluted enzyme and 30 mL of HDAC buffer. Forty m

Each structure is given as a SMILES string.

Compound `O=C(CCCCn1cc(C(=O)Nc2ccccc2)c(=O)c2ccccc21)NO` [Quinolone-based HDAC inhibitor 4a] yielded an IC50 of 32 nM.

For the compound `O=C(CCCCn1cc(C(=O)Nc2ccc(F)cc2)c(=O)c2ccccc21)NO` [Quinolone-based HDAC inhibitor 4b], the IC50 was 270 nM. Against the preceding compound, the IC50 is about 8.4-fold higher.

With `COc1ccc(NC(=O)c2cn(CCCCC(=O)NO)c3ccccc3c2=O)cc1` [Quinolone-based HDAC inhibitor 4c], the IC50 came out at 39 nM.

Take `O=C(CCCCn1cc(C(=O)NCc2ccccc2)c(=O)c2ccccc21)NO` [Quinolone-based HDAC inhibitor 4d]: the IC50 came to 120 nM.

The compound `COc1ccc(CNC(=O)c2cn(CCCCC(=O)NO)c3ccccc3c2=O)cc1` [Quinolone-based HDAC inhibitor 4e] displayed a half-maximal inhibitory concentration (IC50) of 410 nM. This IC50 lies about 3.4-fold higher than the previous one.

`O=C(CCCCn1cc(C(=O)NCc2cccs2)c(=O)c2ccccc21)NO` [Quinolone-based HDAC inhibitor 4f] displayed an IC50 of 390 nM.

`O=C(CCCCn1cc(C(=O)Nc2ccncc2)c(=O)c2ccccc21)NO` [Quinolone-based HDAC inhibitor 4g] came in with an IC50 of 90 nM.

`O=C(CCCCn1cc(C(=O)Nc2nccs2)c(=O)c2ccccc21)NO` [Quinolone-based HDAC inhibitor 4h] registered an IC50 of 42 nM.

`Cc1csc(NC(=O)c2cn(CCCCC(=O)NO)c3ccccc3c2=O)n1` [Quinolone-based HDAC inhibitor 4i] came in with an IC50 of 0.1 nM.

With `O=C(CCCCn1cc(C(=O)Nc2nc3ccccc3s2)c(=O)c2ccccc21)NO` [Quinolone-based HDAC inhibitor 4j], the IC50 is 1.5 nM.

Compound `COc1ccc2c(c1)c(=O)c(C(=O)Nc1ccccc1)cn2CCCCC(=O)NO` [Quinolone-based HDAC inhibitor 4k] showed an IC50 of 32 nM.

In the case of `COc1ccc2c(c1)c(=O)c(C(=O)Nc1ccc(F)cc1)cn2CCCCC(=O)NO` [Quinolone-based HDAC inhibitor 4l], the midpoint of inhibition, the IC50, lay at 32 nM.

`COc1ccc(NC(=O)c2cn(CCCCC(=O)NO)c3ccc(OC)cc3c2=O)cc1` [Quinolone-based HDAC inhibitor 4m] registered a concentration for half-maximal inhibition (IC50) of 75 nM. This IC50 is about 2.3-fold higher than that of the compound before.

On to `COc1ccc2c(c1)c(=O)c(C(=O)Nc1ccc(OC)c(OC)c1)cn2CCCCC(=O)NO` [Quinolone-based HDAC inhibitor 4n], for which the IC50 came out at 150 nM.

Compound `COc1ccc2c(c1)c(=O)c(C(=O)Nc1cc(-c3ccccc3)nn1C)cn2CCCCC(=O)NO` [Quinolone-based HDAC inhibitor 4o] gave an IC50 of 10 nM.

As for `COc1ccc2c(c1)c(=O)c(C(=O)Nc1nc3ccccc3s1)cn2CCCCC(=O)NO` [Quinolone-based HDAC inhibitor 4p], the IC50 amounted to 28 nM.

The compound `O=C(CCCCn1cc(C(=O)Nc2ccc(F)cc2)c(=O)c2cc(F)ccc21)NO` [Quinolone-based HDAC inhibitor 4q] yielded an IC50 of 40 nM. The IC50 values of the last two compounds are within 1.5-fold of each other.

On to `COc1ccc(NC(=O)c2cn(CCCCC(=O)NO)c3ccc(F)cc3c2=O)cc1` [Quinolone-based HDAC inhibitor 4r], for which the IC50 is 28 nM.

Turning to `COc1ccc(CNC(=O)c2cn(CCCCC(=O)NO)c3ccc(F)cc3c2=O)cc1` [Quinolone-based HDAC inhibitor 4s], the IC50 is 330 nM. Against the preceding compound, the IC50 is about 12-fold higher.

Turning to `COc1ccc(NC(=O)c2cn(CCCCC(=O)NO)c3ccc(F)cc3c2=O)cc1OC` [Quinolone-based HDAC inhibitor 4t], the IC50 was found to be 230 nM.

In turn, `O=C(CCCCn1cc(C(=O)Nc2ccncc2)c(=O)c2cc(F)ccc21)NO` [Quinolone-based HDAC inhibitor 4u] showed an IC50 of 85 nM.

Consider `O=C(CCCCn1cc(C(=O)Nc2nc3ccccc3s2)c(=O)c2cc(F)ccc21)NO` [Quinolone-based HDAC inhibitor 4v], for which it took 39 nM to reach half-maximal inhibition (IC50).

In turn, `O=C(CCCCn1cc(C(=O)NC2=CC(c3ccccc3)N=N2)c(=O)c2ccccc21)NO` (stereo not drawn) [Quinolone-based HDAC inhibitor 4w] registered a 50% inhibitory concentration (IC50) of 95 nM.
